Data on 2 compounds can be found in patent US11725173B2, “Highly efficient organoid culture device and system” (CELLARTGEN INC., priority 2018, dated 2023).

Common to all, as to type: cell-based
Data set [1] concerns liver organoid. In words: GSH and ROS distribution by monochlorobimane (mBCL) and dihydroethidium (DHE) assay in liver organoid. The note with it: liver organoid of the THE-F group, APAP 2 to 50 mM.
Data set [2] has as its system liver organoid. As to the kind of experiment: Toxicity test of liver organoid under drug concentration gradient (syringe pump and mixing channel). The note with it: cultured 48 hours under gradient formed from 50 mM APAP medium and medium containing no APAP.
The subject of another data set is CYP7A1. As to the kind of experiment: CYP7A1 gene expression in liver organoid cultured alone or co-cultured with intestine organoid, bile acid in culture medium. As to conditions: compared with DMSO control. As for the experimental part:
(§1) Co-culture of the induced liver organoid and the adult stem cell-derived intestine organoid was performed, and the interaction between the two organoids was analyzed.

Another data set has as its system albumin gene. In words: Albumin gene expression in liver organoid cultured alone or co-cultured with intestine organoid, bile acid in culture medium. As to conditions: all conditions (liver organoid alone or co-cultured with intestine organoid); compared with DMSO control. As for the experimental part:
as §1

Take `CC(=O)Nc1ccc(O)cc1` [APAP, acetaminophen]: in the data set with liver organoid [1], the “intracellular toxicity and damage of the liver organoid” value is “increased with an increasing concentration”. Moreover, in the data set with liver organoid [1] (at higher concentrations), the “fluorescence of DHE (reactive oxygen species formation)” value is reported as “higher” and the “fluorescence of mBCL (intracellular glutathione, GSH)” value is reported as “lower”. Besides, in the data set on liver organoid [2], the “cytotoxicity in the liver organoid” value was “increased as the drug concentration increased”.
Consider `C[C@H](CCC(=O)O)[C@H]1CC[C@H]2[C@@H]3[C@H](O)C[C@@H]4C[C@H](O)CC[C@]4(C)[C@H]3CC[C@]12C` [CDCA, chenodeoxycholic acid], for which the figures for the “expression level of CYP7A1” value in the data set with CYP7A1 (liver organoid co-cultured with intestine organoid) and in the data set on CYP7A1 (liver organoid cultured alone) were “a decrease” and “no difference”, respectively. Further, the albumin gene expression result in the data set with albumin gene is “no difference in all conditions”.
